Source: patent US20060276537A1, “Use of ladostigil for the treatment of multiple sclerosis” (priority 2005, published 2006)
Read-outs that look alike come from different tables or passages of the source. Marks after values point to notes of the source that are not given here.

Columns and labels:
Assay type in all cases: in vivo
[1] = Body weight of the EAE mice (Table 7)
Source text: These differences were statistically significant (p<0.000, Manova). According to the subsequent Post Hoc comparison (LSD), all the groups were different from the control (Table 7). […] On day 14, four days after the onset of the disease, sick mice lost an average of 2 g of weight. The average mean weight of GA-blocked mice was reduced by only 0.4 g. On day 23 the control group reached the lowest weight, 14.6 g.

[2] = tested on: relapsing remitting EAE in 129/SvEv mice; assay: MOG-induced relapsing remitting EAE in 129/SvEv mice
Description: This experiment is conducted to evaluate whether ladostigil tartrate is effective in alleviating EAE. EAE is induced in mice by the administration of myelin oligodendrocyte glycoprotein (MOG). Injection of MOG into 129/SvEv mice produces a relapsing remitting EAE (murine model of relapsing remitting multiple sclerosis).
One week before MOG immunization, 129/SvEv mice receive a sub-optimal dose of ladostigil tartrate or saline vehicle. Over a period of 1-2 months following MOG immunization, clinical scores are monitored by weighing animals on a daily basis and grading the severity of EAE. In addition to clinical evaluation, groups of mice are sacrificed at weekly intervals for routine histological examination (hematoxylin-eosin and luxol fast blue for evidence of inflammation and demyelination, respectively). Also, cellular infiltrates are examined for CD3 (T lymphocytes), CD56 (natural killer cells) and CD19 (B cell immunohistochemistry). Loss of neurons and oligodendrocytes is assessed using immunohistochemistry for NeuN and glutathione-S-transferase pi isoform, respectively. Furthermore, axonal integrity is examined using immunohistochemistry for β-amyloid precursor protein or neurofilament, and by Bielchowsky silver stains. The neuropathological assessments are focused on the optic nerve, lumbar/sacral cord and brain stem.

[3] = tested on: acetylcholinesterase (AChE); assay: Cholinesterase assay (modified Ellman, ATC substrate) in brain and blood of treated EAE mice; conditions: for Blood AChE U/ml / Blood AchE % inhibition: blood of EAE mice; for Brain AChE U/g (Total ChE) / Brain AchE % inhibition: brain of EAE mice
Description: (§1) From the mice of Example 2, acetylcholinesterase (AChE) and butyrylcholinesterase (BChE) activities were determined by a modification of Ellman's spectophotometric method using acetyltiocholine (ATC) and butyryltiocholine (BTC) as substrates.
(§2) Homogenate of 100 mg brain tissue in 1 ml 100 mM phosphate buffer pH=8.0 was prepared. 0.4 ml of crude homogenate was added to 1.2 ml pre-warmed 4 mM 5,5′-Dithiobis(2-nitrobenzoic acid) (DTNB or Ellman's reagant); 30 μl from this mixture were added to 210 μl pre-warmed (28° C.) 50 mM phosphate buffer in a microplate; and the reaction was started by addition of 10 μl ATC or BTC (final concentration=1 mM) or water (for the blank reaction) The increase in optical density (OD) at 412 nm was monitored for 3 minutes and the slope of the straight line obtained by linear regression provided the activity in terms of ΔOD/min using SOFTMAX® software. Blank reaction was subtracted.
(§3) Conversion of ΔOD/min into Enzyme Activity was Performed as Follows: Unit enzyme/gram tissue=OD/min*0.25/10.54*4*1000/30*11
(§4) The same procedure was performed as with brain homogenate using 50 μl of ¼ hemolysate/DTNB mixture.
(§5) Enzyme activity in the blood was calculated in units/1 ml whole blood.
AChE activity was calculated as follows: AChE activity=ΔOD/min (determined with ATC)−ΔOD/min (determined with BTC)/0.7
0.7=BChE activity on BTC/BChE activity on ATC. It was determined by using 1.25-10^−6M BW281C51 to inhibit AChE and with ATC and BTC as substrates.

[4] = molecular target: T1, butyrylcholinesterase (BChE) (Mus musculus, UniProt Q03311); assay: Cholinesterase assay (modified Ellman, BTC substrate) in brain and blood of treated EAE mice; conditions: for Brain BuChE U/g: results on the limit of assay sensitivity; for inhibition at 10.2 mg/kg / inhibition at 25.5 mg/kg / inhibition at 51 mg/kg / inhibition at 70.1 mg/kg: mouse
T1 construct: Homogenate of 100 mg brain tissue in 1 ml 100 mM phosphate buffer pH=8.0 was prepared; from tissue; host or cells: brain homogenate and blood hemolysate of ladostigil-treated EAE mice
Description: as §1, §2, §3, §4, §5
BuChE activity was calculated directly from the ΔOD/min of BTC.

[5] = sub-optimal dose from one week before MOG immunization, vs saline vehicle
[6] = 51 and 70.1 mg/kg/day, doses effective in ameliorating EAE

T1 sequence (Q03311 30-603): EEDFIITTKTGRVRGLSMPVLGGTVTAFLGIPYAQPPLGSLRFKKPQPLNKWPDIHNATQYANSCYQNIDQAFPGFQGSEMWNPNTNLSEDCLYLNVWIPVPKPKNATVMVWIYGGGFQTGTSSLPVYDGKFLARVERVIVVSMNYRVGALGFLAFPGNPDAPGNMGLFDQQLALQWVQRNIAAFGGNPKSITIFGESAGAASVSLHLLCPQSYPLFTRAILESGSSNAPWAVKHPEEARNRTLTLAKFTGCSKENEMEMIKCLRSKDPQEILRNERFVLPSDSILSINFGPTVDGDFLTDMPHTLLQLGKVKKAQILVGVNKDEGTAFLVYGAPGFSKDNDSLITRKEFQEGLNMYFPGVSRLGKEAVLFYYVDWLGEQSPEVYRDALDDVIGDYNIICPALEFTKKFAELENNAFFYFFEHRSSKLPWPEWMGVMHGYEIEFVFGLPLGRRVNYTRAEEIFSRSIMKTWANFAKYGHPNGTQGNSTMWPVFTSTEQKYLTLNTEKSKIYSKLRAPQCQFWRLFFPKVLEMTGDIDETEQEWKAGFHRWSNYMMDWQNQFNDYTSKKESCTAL

C#CCN[C@@H]1CCc2ccc(OC(=O)N(C)CC)cc21 [Ladostigil, R(+)-6-(N-methyl,N-ethyl-carbamoyloxy)-N′-propargyl-1-aminoindan]
Weight of EAE mice ([1]; day 2 after induction, ladostigil salt 10.2 mg/kg gavage daily): 18.1 ± 1.0 g | Weight of EAE mice ([1]; day 2 after induction, ladostigil salt 25.5 mg/kg gavage daily): 18.2 ± 0.8 g | Weight of EAE mice ([1]; day 2 after induction, ladostigil salt 51 mg/kg gavage daily): 18.2 ± 0.9 g | Weight of EAE mice ([1]; day 2 after induction, ladostigil salt 70.1 mg/kg gavage daily): 18.5 ± 0.8 g | Weight of EAE mice ([1]; day 14 after induction, ladostigil salt 10.2 mg/kg gavage daily): 16.0 ± 1.7 g | Weight of EAE mice ([1]; day 14 after induction, ladostigil salt 25.5 mg/kg gavage daily): 15.9 ± 1.7 g | Weight of EAE mice ([1]; day 14 after induction, ladostigil salt 51 mg/kg gavage daily): 15.6 ± 1.6 g | Weight of EAE mice ([1]; day 14 after induction, ladostigil salt 70.1 mg/kg gavage daily): 15.9 ± 1.4 g | Weight of EAE mice ([1]; day 30 after induction, ladostigil salt 10.2 mg/kg gavage daily): 17.6 ± 2.5 g | Weight of EAE mice ([1]; day 30 after induction, ladostigil salt 25.5 mg/kg gavage daily): 17.8 ± 1.4 g | Weight of EAE mice ([1]; day 42 after induction, ladostigil salt 10.2 mg/kg gavage daily): 17.5 ± 2.9 g | Weight of EAE mice ([1]; day 42 after induction, ladostigil salt 25.5 mg/kg gavage daily): 17.6 ± 1.7 g | Weight compared with positive control ([1]; highest dose of ladostigil, day 30): comparable with the positive control | incidence and severity of EAE ([2]; compared to control): decreases both the incidence and severity of EAE | area under the curve (clinical score) [2, 5]: smaller area under the curve | clinical score [2, 5]: lower clinical score | inhibition of AChE in blood [3, 6]: 60-65% | inhibition of AChE in brain [3, 6]: 47-52% | Blood AChE U/ml ([3]; 10.2 mg/kg salt): 0.85 +/− 0.17 U/ml | Blood AchE % inhibition ([3]; 10.2 mg/kg salt): 37.4* % | Blood AChE U/ml ([3]; 25.5 mg/kg salt): 0.73 +/− 0.12 U/ml | Blood AchE % inhibition ([3]; 25.5 mg/kg salt): 46.3* % | Blood AChE U/ml ([3]; 51 mg/kg salt): 0.54 +/− 0.1 U/ml | Blood AchE % inhibition ([3]; 51 mg/kg salt): 60.2* % | Blood AChE U/ml ([3]; 70.1 mg/kg salt): 0.48 +/− 0.1 U/ml | Blood AchE % inhibition ([3]; 70.1 mg/kg salt): 64.9* % | Brain AChE U/g (Total ChE) ([3]; 10.2 mg/kg salt): 8.77 +/− 1.23 U/g | Brain AchE % inhibition ([3]; 10.2 mg/kg salt): 13.4% | Brain AChE U/g (Total ChE) ([3]; 25.5 mg/kg salt): 7.42 +/− 1.29 U/g | Brain AchE % inhibition ([3]; 25.5 mg/kg salt): 26.8* % | Brain AChE U/g (Total ChE) ([3]; 51 mg/kg salt): 5.41 +/− 0.6 U/g | Brain AchE % inhibition ([3]; 51 mg/kg salt): 46.6* % | Brain AChE U/g (Total ChE) ([3]; 70.1 mg/kg salt): 4.85 +/− 0.65 U/g | Brain AchE % inhibition ([3]; 70.1 mg/kg salt): 52.2* % | BChE inhibition ([4]; 51 and 70.1 mg/kg/day, brain and blood): 35-42% | Blood BuChE U/ml ([4]; blood of EAE mice, 10.2 mg/kg salt): 1.52 +/− 0.24 U/ml | Blood BuChE U/ml ([4]; blood of EAE mice, 25.5 mg/kg salt): 1.47 +/− 0.18 U/ml | Blood BuChE U/ml ([4]; blood of EAE mice, 51 mg/kg salt): 1.06 +/− 0.21 U/ml | Blood BuChE U/ml ([4]; blood of EAE mice, 70.1 mg/kg salt): 1.01 +/− 0.18 U/ml | Brain BuChE U/g ([4]; brain of EAE mice, 10.2 mg/kg salt): 0.35 +/− 0.04 U/g | Brain BuChE U/g ([4]; brain of EAE mice, 25.5 mg/kg salt): 0.31 +/− 0.04 U/g | Brain BuChE U/g ([4]; brain of EAE mice, 51 mg/kg salt): 0.22 +/− 0.03 U/g | Brain BuChE U/g ([4]; brain of EAE mice, 70.1 mg/kg salt): 0.25 +/− 0.06 U/g | inhibition at 10.2 mg/kg ([4]; blood of EAE mice, 10.2 mg/kg salt, read-out: Blood BchE % inhibition): 6.7% | inhibition at 25.5 mg/kg ([4]; blood of EAE mice, 25.5 mg/kg salt, read-out: Blood BchE % inhibition): 10.1% | inhibition at 51 mg/kg ([4]; blood of EAE mice, 51 mg/kg salt, read-out: Blood BchE % inhibition): 35.3% | inhibition at 70.1 mg/kg ([4]; blood of EAE mice, 70.1 mg/kg salt, read-out: Blood BchE % inhibition): 38.4% | inhibition at 10.2 mg/kg ([4]; brain of EAE mice, 10.2 mg/kg salt, read-out: Brain BchE % inhibition): 7.9% | inhibition at 25.5 mg/kg ([4]; brain of EAE mice, 25.5 mg/kg salt, read-out: Brain BchE % inhibition): 18.4% | inhibition at 51 mg/kg ([4]; brain of EAE mice, 51 mg/kg salt, read-out: Brain BchE % inhibition): 42.1% | inhibition at 70.1 mg/kg ([4]; brain of EAE mice, 70.1 mg/kg salt, read-out: Brain BchE % inhibition): 34.2%
